# In ChEMBL document CHEMBL4842327, “Cyclic mimetics of kinase-inhibitory region of Suppressors of Cytokine Signaling 1: Progress toward novel anti-inflammatory therapeutics” (Eur J Med Chem, 2021):
# The source made the active and inactive calls. The rule behind the calls is not given here. Peptide text beside a SMILES is read from it. * marks the point of attachment. Acm = CC(=O)NC*
# Legend:
# [1] = system: VSMC; experiment: Antioxidant activity in IFNgamma/IL6-stimulated mouse VSMC cells assessed as reduction in Nox1 mRNA expression by quantitative real time PCR analysis; format: functional, cell-based
# [2] = target: Tyrosine-protein kinase JAK2 (Mus musculus) (UniProt Q62120); experiment: Inhibition of JAK2 in mouse VSMC cells assessed as reduction in IFNgamma/IL6- induced STAT1 phosphorylation by Western blot analysis; format: cell-based
# Sequence of Tyrosine-protein kinase JAK2 (Mus musculus) (Q62120 whole entry, the tested form may be a part): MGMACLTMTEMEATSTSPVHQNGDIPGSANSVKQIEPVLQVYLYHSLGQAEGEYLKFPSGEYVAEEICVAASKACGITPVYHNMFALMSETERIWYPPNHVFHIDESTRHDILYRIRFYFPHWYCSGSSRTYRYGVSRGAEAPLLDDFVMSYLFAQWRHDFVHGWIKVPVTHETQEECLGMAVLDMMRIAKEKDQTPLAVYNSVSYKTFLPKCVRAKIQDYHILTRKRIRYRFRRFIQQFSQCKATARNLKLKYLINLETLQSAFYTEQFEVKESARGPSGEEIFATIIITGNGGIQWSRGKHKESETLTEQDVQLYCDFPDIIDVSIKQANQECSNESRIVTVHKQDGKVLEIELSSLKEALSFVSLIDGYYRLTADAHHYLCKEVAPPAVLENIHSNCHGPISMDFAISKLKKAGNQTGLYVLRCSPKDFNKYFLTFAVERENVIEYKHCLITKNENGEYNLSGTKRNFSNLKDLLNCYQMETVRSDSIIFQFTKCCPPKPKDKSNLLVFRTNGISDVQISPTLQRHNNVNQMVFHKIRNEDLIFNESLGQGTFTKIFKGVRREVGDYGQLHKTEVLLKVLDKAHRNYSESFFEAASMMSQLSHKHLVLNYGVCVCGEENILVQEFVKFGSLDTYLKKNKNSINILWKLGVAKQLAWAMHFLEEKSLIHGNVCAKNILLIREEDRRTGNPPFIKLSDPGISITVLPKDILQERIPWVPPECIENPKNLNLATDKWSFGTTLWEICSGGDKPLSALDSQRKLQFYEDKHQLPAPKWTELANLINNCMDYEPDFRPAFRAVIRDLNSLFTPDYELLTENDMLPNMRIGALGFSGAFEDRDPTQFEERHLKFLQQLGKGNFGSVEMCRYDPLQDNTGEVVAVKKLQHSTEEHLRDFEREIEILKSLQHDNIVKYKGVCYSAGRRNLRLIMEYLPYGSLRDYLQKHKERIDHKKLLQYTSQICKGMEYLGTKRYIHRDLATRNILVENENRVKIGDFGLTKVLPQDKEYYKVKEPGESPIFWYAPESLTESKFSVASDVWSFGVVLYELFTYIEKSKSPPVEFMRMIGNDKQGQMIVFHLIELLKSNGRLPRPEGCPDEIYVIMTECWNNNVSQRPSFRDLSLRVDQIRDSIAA
# [3] = target: Tyrosine-protein kinase JAK2 (Mus musculus) (UniProt Q62120); experiment: Inhibition of JAK2 in mouse RAW264.7 cells assessed as reduction in IFNgamma/IL6-induced Ccl5 mRNA expression by quantitative real time PCR analysis; format: cell-based
# [4] = system: VSMC; experiment: Antioxidant activity in IFNgamma/IL6-stimulated mouse VSMC cells assessed as upregulation of catalase mRNA expression by quantitative real time PCR analysis; format: functional, cell-based
# [5] = target: Tyrosine-protein kinase JAK2 (Mus musculus) (UniProt Q62120); experiment: Inhibition of JAK2 in mouse VSMC cells assessed as reduction in IFNgamma/IL6-induced JAK2 phosphorylation by Western blot analysis; format: cell-based
# [6] = system: VSMC; experiment: Inhibition of IFN-gamma/IL6-induced cell migration in mouse VSMC cells incubated for 45 hrs by scratch wound healing assay; format: functional, cell-based
# [7] = target: Tyrosine-protein kinase JAK2 (Mus musculus) (UniProt Q62120); experiment: Inhibition of JAK2 in mouse RAW264.7 cells assessed as reduction in IFNgamma/IL6-induced Cxcl10 mRNA expression by quantitative real time PCR analysis; format: cell-based
# [8] = target: Tyrosine-protein kinase JAK2 (Homo sapiens, UniProt O60674); experiment: Binding affinity to N-terminal His-tagged human JAK2 catalytic domain (826 to 1132 residues) expressed in baculovirus-infected Sf21 cells by Microscale thermophoresis analysis
# Sequence of Tyrosine-protein kinase JAK2 (O60674 whole entry, the tested form may be a part): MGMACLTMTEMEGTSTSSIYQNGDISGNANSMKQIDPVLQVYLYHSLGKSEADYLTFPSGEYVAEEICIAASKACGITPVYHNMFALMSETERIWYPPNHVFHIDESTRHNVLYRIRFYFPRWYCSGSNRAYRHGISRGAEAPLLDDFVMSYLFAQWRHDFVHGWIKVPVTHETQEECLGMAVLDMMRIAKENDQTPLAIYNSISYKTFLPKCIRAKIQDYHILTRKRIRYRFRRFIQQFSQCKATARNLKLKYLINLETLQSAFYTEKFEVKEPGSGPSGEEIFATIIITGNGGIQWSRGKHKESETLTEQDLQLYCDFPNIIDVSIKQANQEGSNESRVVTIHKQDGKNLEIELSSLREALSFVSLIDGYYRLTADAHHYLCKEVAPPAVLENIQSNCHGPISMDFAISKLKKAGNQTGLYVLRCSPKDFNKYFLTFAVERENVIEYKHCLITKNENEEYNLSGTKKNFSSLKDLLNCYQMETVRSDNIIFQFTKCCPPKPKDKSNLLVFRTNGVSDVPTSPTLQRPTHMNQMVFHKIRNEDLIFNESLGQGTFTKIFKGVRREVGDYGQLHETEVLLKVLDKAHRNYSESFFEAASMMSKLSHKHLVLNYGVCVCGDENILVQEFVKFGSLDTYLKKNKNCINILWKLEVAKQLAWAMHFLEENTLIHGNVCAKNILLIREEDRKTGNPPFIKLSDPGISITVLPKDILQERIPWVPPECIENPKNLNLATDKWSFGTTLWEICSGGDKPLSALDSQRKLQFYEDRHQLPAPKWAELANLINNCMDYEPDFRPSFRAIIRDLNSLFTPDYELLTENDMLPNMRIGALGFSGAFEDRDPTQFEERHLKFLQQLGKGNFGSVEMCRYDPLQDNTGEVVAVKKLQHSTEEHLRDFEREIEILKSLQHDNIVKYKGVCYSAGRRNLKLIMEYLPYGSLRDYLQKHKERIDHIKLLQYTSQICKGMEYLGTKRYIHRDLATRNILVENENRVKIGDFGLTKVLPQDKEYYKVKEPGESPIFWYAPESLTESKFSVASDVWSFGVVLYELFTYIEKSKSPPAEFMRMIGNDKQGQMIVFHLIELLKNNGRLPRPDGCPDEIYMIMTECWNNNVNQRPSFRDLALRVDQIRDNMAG
# [9] = target: Tyrosine-protein kinase JAK2 (Mus musculus) (UniProt Q62120); experiment: Inhibition of JAK2 in mouse VSMC cells assessed as reduction in IFNgamma/IL6-induced Ccl2 mRNA expression by quantitative real time PCR analysis; format: cell-based
# [10] = target: Tyrosine-protein kinase JAK2 (Mus musculus) (UniProt Q62120); experiment: Inhibition of JAK2 in mouse VSMC cells assessed as reduction in IFNgamma/IL6-induced Cxcl10 mRNA expression by quantitative real time PCR analysis; format: cell-based
# [11] = target: Tyrosine-protein kinase JAK2 (Mus musculus) (UniProt Q62120); experiment: Inhibition of JAK2 in mouse VSMC cells assessed as reduction in IFN-gamma/IL6 induced STAT1 nuclear translocation at 5 uM treated for 90 mins prior to cytokine stimulation and measured after 1 hr by DAPI staining based immunofluorescence confocal microscopy; format: cell-based; settings: time 150.0 min
# [12] = system: VSMC; experiment: Antioxidant activity in mouse VSMC cells assessed as reduction in IFNgamma/IL6-induced intracellular superoxide generation by DHE staining based fluorescence confocal microscopy analysis; format: functional, cell-based
# [13] = system: VSMC; experiment: Antioxidant activity in IFNgamma/IL6-stimulated mouse VSMC cells assessed as upregulation of Sod1 mRNA expression by quantitative real time PCR analysis; format: functional, cell-based
# [14] = target: Tyrosine-protein kinase JAK2 (Mus musculus) (UniProt Q62120); experiment: Inhibition of JAK2 in mouse VSMC cells assessed as reduction in IFNgamma/IL6 induced STAT1 phosphorylation at 5 uM treated for 90 mins prior to cytokine stimulation and measured after 1 hr by DAPI staining based immunofluorescence confocal microscopy; format: cell-based; settings: time 150.0 min
# [15] = system: VSMC; experiment: Antioxidant activity in IFNgamma/IL6-stimulated mouse VSMC cells assessed as reduction in Nox4 mRNA expression by quantitative real time PCR analysis; format: functional, cell-based
# [16] = system: RAW264.7; experiment: Antioxidant activity in mouse RAW264.7 cells assessed as reduction in IFNgamma/IL6-induced intracellular superoxide generation by DHE staining based fluorescence confocal microscopy analysis; format: functional, cell-based
# [17] = target: Tyrosine-protein kinase JAK2 (Mus musculus) (UniProt Q62120); experiment: Inhibition of JAK2 in mouse RAW264.7 cells assessed as reduction in IFNgamma/IL6-induced Ccl2 mRNA expression by quantitative real time PCR analysis; format: cell-based
# [18] = target: Tyrosine-protein kinase JAK2 (Mus musculus) (UniProt Q62120); experiment: Inhibition of JAK2 in mouse VSMC cells assessed as reduction in IFNgamma/IL6-induced Ccl5 mRNA expression by quantitative real time PCR analysis; format: cell-based
# [19] = Stability of the compound in 25% fetal calf serum assessed as residual parent compound level at 80 uM measured after 42 hrs by RP-HPLC analysis; format: ADME, cell-free, Bos taurus; settings: cattle, read-out: Stabilty
# [20] = Stability of the compound in 25% fetal calf serum assessed as enzyme-mediated compound degradation at 80 uM measured after 24 hrs by RP-HPLC analysis; format: ADME, cell-free, Bos taurus; settings: cattle, read-out: Drug degradation
# [21] = Cytotoxicity against mouse VSMC cells assessed as reduction in cell viability at 25 uM incubated for 6 to 24 hrs in DMEM medium containing 0.5% FBS by MTT assay; format: cell-based; settings: time 6-24 hrs
# [22] = Cytotoxicity against mouse VSMC cells assessed as reduction in cell proliferation at 25 uM incubated for 24 hrs in DMEM medium containing 10% FBS by MTT assay; format: cell-based
SMILES,Activity [1],inhibition [2],inhibition [3],Activity [4],inhibition [5],inhibition [6],inhibition [7],Kd [8],inhibition [9],inhibition [10],inhibition [11],Activity [12],Activity [13],Activity [15],Activity [16],inhibition [17],inhibition [18],"metabolised at 24 h, 80 µM [20]",Activity [21],Activity [22],other results
CC(=O)NCSC[C@@H]1NC(=O)[C@H]([C@@H](C)O)NC(=O)[C@@H](NC(C)=O)CC(=O)NCCCC[C@@H](C(=O)NC(Cc2cnc[nH]2)C(N)=O)NC(=O)[C@@H](CCCNC(=N)N)NC(=O)[C@H](Cc2ccccc2)NC(=O)[C@H]([C@@H](C)O)NC(=O)[C@H](CCC(N)=O)NC(=O)[C@@H](CCCNC(=N)N)NC1=O (stereo not given in full),Active,Active,Active,Active,Active,Active,Active,44 µM,Active,Active,65%,Active,Active,Active,Active,Active,Active,–,–,–,inhibition [14]: 65%
CC(=O)NCSC[C@@H]1NC(=O)[C@H]([C@@H](C)O)NC(=O)[C@@H](NC(C)=O)CC(=O)NCCCC[C@@H](C(=O)N[C@@H](Cc2cnc[nH]2)C(N)=O)NC(=O)[C@H](CCCNC(=N)N)NC(=O)[C@H](Cc2cccc3ccccc23)NC(=O)[C@H]([C@@H](C)O)NC(=O)[C@H](CCC(N)=O)NC(=O)[C@H](CCCNC(=N)N)NC1=O,–,–,–,–,–,–,–,–,–,–,–,–,–,–,–,–,–,20%,Non-Toxic,Non-Toxic,"remaining at 42 h, 80 µM [19]: 40%"
CC(=O)NCSC[C@H](NC(=O)[C@@H](NC(=O)[C@H](CC(=O)O)NC(C)=O)[C@@H](C)O)C(=O)N[C@@H](CCCNC(=N)N)C(=O)N[C@@H](CCC(N)=O)C(=O)N[C@H](C(=O)N[C@@H](Cc1ccccc1)C(=O)N[C@@H](CCCNC(=N)N)C(=O)N[C@@H](CO)C(=O)N[C@@H](Cc1cnc[nH]1)C(=O)O)[C@@H](C)O (Ac-DTC(Acm)RQTFRSH-OH),Active,Active,Active,Active,Active,–,Active,–,Active,Active,–,Active,Active,Active,Active,Active,Active,50%,Non-Toxic,Non-Toxic,–
CC(=O)NCSC[C@@H]1NC(=O)[C@H]([C@@H](C)O)NC(=O)[C@H](NC(C)=O)CC(=O)NCCCC[C@@H](C(=O)NC(Cc2cnc[nH]2)C(N)=O)NC(=O)[C@@H](CCCNC(=N)N)NC(=O)[C@H](Cc2cccc3ccccc23)NC(=O)[C@H]([C@@H](C)O)NC(=O)[C@H](CCC(N)=O)NC(=O)[C@@H](CCCNC(=N)N)NC1=O (stereo not given in full),Active,Active,Active,Active,Active,Active,Active,35 µM,Active,Active,65%,Active,Active,Active,Active,Active,Active,–,–,–,inhibition [14]: 65%
CC(=O)NCSC[C@@H]1NC(=O)[C@H]([C@@H](C)O)NC(=O)[C@@H](NC(C)=O)CC(=O)NCCCC[C@@H](C(=O)N[C@@H](Cc2cnc[nH]2)C(N)=O)NC(=O)[C@H](CCCNC(=N)N)NC(=O)[C@H](Cc2ccccc2)NC(=O)[C@H]([C@@H](C)O)NC(=O)[C@H](CCC(N)=O)NC(=O)[C@H](CCCNC(=N)N)NC1=O,–,–,–,–,–,–,–,–,–,–,–,–,–,–,–,–,–,40%,Non-Toxic,Non-Toxic,–
